Assay results as given in publication PMC3906128 (Addiction biology, 2011).
Where a name gives a salt, the structure may show the parent alone. Read-outs that look alike come from different tables or passages of the source.

Tests used:
DOP-R1 [1] = target: T1, DOP-R1 (Rattus norvegicus, UniProt P33533); test: Inhibition of TAN67-; type: biochemical
DOP-R2 = DOP-R2 (Rattus norvegicus, UniProt P33533); test: Deltorphin II-stimulated [35S]GTPγS binding in rat midbrain membranes; type: biochemical; settings: Mean (± SEM) EC50 for Midbrain Opioid Stimulation, ethanol-trained rats
MOP-R [2] = settings: in vitro, ref Wells et al., 2001, Xu et al.; cited from earlier work
KOP-R = settings: in vitro, ref Wells et al., 2001, Xu et al.; cited from earlier work
DOP-R [3] = settings: brain membranes of high-ethanol consuming rats; ref Nielsen et al., 2008; cited from earlier work
corticosterone (CORT) = test: Plasma corticosterone measurement; type: in vivo, rat; settings: SoRI-9409 5 mg/kg I.P. prior to yohimbine 2 mg/kg I.P.; P > 0.05
rats [4] = settings: elevated plus maze test in rats; ref Nielsen et al., 2008; cited from earlier work
DOP-R [5] = settings: in vitro, ref Wells et al., 2001, Xu et al.; cited from earlier work
rats [6] = settings: 5 mg/kg I.P., ref Nielsen et al., 2008; cited from earlier work
DOP-R [7] = settings: ref Ananthan et al., 1999, cited from earlier work
Long-Evans rats = test: Yohimbine stress-induced reinstatement of 10% ethanol seeking
MOP-R [8] = settings: ref Ananthan et al., 1999, cited from earlier work
DOP-R1 [9] = target: T1, DOP-R1; test: TAN67-stimulated [35S]GTPγS binding in rat brain membranes; type: biochemical; settings: for EC50: ethanol-trained rats
[10] = read-out: IC50, inhibition of TAN67-stimulated (10 μmol/L) [35S]GTPγS-binding, midbrain membranes, ethanol-trained rats given SoRI-9409-vehicle prior to yohimbine (2 mg/kg I.P.)

Sequence of DOP-R2 (P33533 whole entry): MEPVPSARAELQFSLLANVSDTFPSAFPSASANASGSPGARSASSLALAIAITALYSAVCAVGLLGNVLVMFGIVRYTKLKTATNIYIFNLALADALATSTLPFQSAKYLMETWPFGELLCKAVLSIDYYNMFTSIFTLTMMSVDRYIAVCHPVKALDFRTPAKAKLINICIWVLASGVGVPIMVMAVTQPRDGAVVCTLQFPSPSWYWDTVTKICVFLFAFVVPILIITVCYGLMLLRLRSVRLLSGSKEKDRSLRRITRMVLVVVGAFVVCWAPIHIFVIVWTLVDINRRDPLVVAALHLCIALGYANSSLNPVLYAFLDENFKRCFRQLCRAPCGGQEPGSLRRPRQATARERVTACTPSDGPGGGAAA
T1 sequence (P33533 whole entry): as above

With O=C1/C(=C/c2ccccc2)C[C@@]2(O)[C@H]3Cc4ccc(O)c5c4[C@@]2(CCN3CC2CC2)[C@H]1O5 [BNTX, 7-benzylidenenaltrexone maleate salt hydrate] as the molecule, how does the IC50 (DOP-R1 [1]; [10]) read?
Its IC50 is 0.037 ± 0.0048 µM.

Which results are given for CC(C)[C@H](NC(=O)[C@H](CCC(=O)O)NC(=O)[C@H](Cc1ccccc1)NC(=O)[C@@H](C)NC(=O)[C@@H](N)Cc1ccc(O)cc1)C(=O)N[C@H](C(=O)NCC(N)=O)C(C)C [Deltorphin II, [D-Ala^2]-Deltorphin II]?
EC50 (DOP-R2; SoRI-9409 (5 mg/kg I.P.)/Yohimbine (2 mg/kg I.P.)): 22 ± 4 µM; EC50 (DOP-R2; SoRI-9409 (5 mg/kg I.P.)/Yohimbine-vehicle): > 100 µM; EC50 (DOP-R2; SoRI-9409-vehicle/Yohimbine (2 mg/kg I.P.)): 27 ± 2.9 µM; EC50 (DOP-R2; SoRI-9409-vehicle/Yohimbine-vehicle): > 100 µM

For Oc1ccc2c3c1O[C@H]1c4ncc(-c5ccc(Cl)cc5)cc4C[C@@]4(O)[C@@H](C2)N(CC2CC2)CC[C@]314 [SoRI-9409, 5′-(4-Chlorophenyl)-17-(cyclopropylmethyl)-6,7-didehydro-3,14-dihydroxy-4,5-alpha-epoxypyrido[2′,3′:6,7] morphinan], which “agonist activity at MOP-R” value (MOP-R [2]) is on record?
Its value is “no agonist activity”.

What about the “antagonist activity at the MOP-R” value (MOP-R [2]) of the same molecule?
Its value is “weak antagonist activity”.

And the “agonist activity at KOP-R” value (KOP-R)?
The value was “no agonist activity”.

What about the “antagonist activity at the KOP-R” value (KOP-R) of the same molecule?
The value was “weak antagonist activity”.

What about the “inhibition of DOP-R-mediated [35S]GTPγS binding” value (DOP-R [3]) of the same molecule?
Its value is “potently inhibits”.

And the “Plasma CORT levels of SoRI-9409/yohimbine treated rats vs SoRI-9409-vehicle/yohimbine treated rats” value (corticosterone (CORT))?
Its value is “not different”.

What about the “anxiogenic or anxiolytic effects” value (rats [4]) of the same molecule?
The value was “does not produce anxiogenic or anxiolytic effects”.

What about the “agonist activity at DOP-R” value (DOP-R [5]) of the same molecule?
The value was “no agonist activity”.

What about the “antagonist activity at the DOP-R” value (DOP-R [5]) of the same molecule?
Its value is “potent antagonist activity”.

What about the “effect on ethanol consumption” value (rats [6]) of the same molecule?
The value was “selective and long-lasting reductions in ethanol consumption”.

What about the “higher binding affinity at the DOP-R in comparison to naltrexone” value (DOP-R [7]; compared to naltrexone) of the same molecule?
The value was “approximately 20 fold”.

What about the Ki (DOP-R [7]; read-out: Ki, binding affinity at the DOP-R) of the same molecule?
The Ki was 0.0022 ± 0.0002 µM.

And the IC50 (DOP-R1 [1]; [10])?
The IC50 was 0.022 ± 0.0035 µM.

And the Inactive lever presses (Long-Evans rats; SoRI-9409 1 mg/kg, Vehicle group (yohimbine-vehicle))?
Its Inactive lever presses is 0.8 ± 0.4.

And the Inactive lever presses (Long-Evans rats; SoRI-9409 1 mg/kg, Yohimbine group (2 mg/kg I.P.))?
The Inactive lever presses was 1.7 ± 0.5.

And the Inactive lever presses (Long-Evans rats; SoRI-9409 2.5 mg/kg, Vehicle group (yohimbine-vehicle))?
Its Inactive lever presses is 0.3 ± 0.3.

And the Inactive lever presses (Long-Evans rats; SoRI-9409 2.5 mg/kg, Yohimbine group (2 mg/kg I.P.))?
Its Inactive lever presses is 1.0 ± 0.4.

What about the Inactive lever presses (Long-Evans rats; SoRI-9409 5 mg/kg, Vehicle group (yohimbine-vehicle)) of the same molecule?
Its Inactive lever presses is 0.2 ± 0.1.

And the Inactive lever presses (Long-Evans rats; SoRI-9409 5 mg/kg, Yohimbine group (2 mg/kg I.P.))?
The Inactive lever presses was 0.6 ± 0.4.

What about the “effect on responding in rats which did not receive yohimbine” value (Long-Evans rats; SoRI-9409 1-5 mg/kg I.P., yohimbine-vehicle only, P > 0.05) of the same molecule?
The value was “did not affect responding”.

And the “reduced binding affinity for the MOP-R in comparison to naltrexone” value (MOP-R [8]; compared to naltrexone)?
The value was “approximately 20 fold”.

And the Ki (MOP-R [8]; read-out: Ki, binding affinity for the MOP-R)?
The Ki was 0.051 ± 0.008 µM.

Which results are given for Br.Br.CN1CC[C@]2(c3cccc(O)c3)Cc3nc4ccccc4cc3C[C@H]2C1 [TAN67, SB 205607 dihydrobromide]?
higher TAN67-mediated DOP-R1 activity in yohimbine-treated rats compared to vehicle-treated rats (DOP-R1 [9]; midbrain membranes, from Table 2 EC50 values): > 700 fold; EC50 (DOP-R1 [9]; read-out: Mean (± SEM) EC50 for Midbrain Opioid Stimulation, midbrain membranes, SoRI-9409 (5 mg/kg I.P.)/Yohimbine (2 mg/kg I.P.)): 5.2 ± 0.3 µM; EC50 (DOP-R1 [9]; read-out: Mean (± SEM) EC50 for Midbrain Opioid Stimulation, midbrain membranes, SoRI-9409 (5 mg/kg I.P.)/Yohimbine-vehicle): > 100 µM; EC50 (DOP-R1 [9]; read-out: Mean (± SEM) EC50 for Midbrain Opioid Stimulation, midbrain membranes, SoRI-9409-vehicle/Yohimbine (2 mg/kg I.P.)): 0.14 ± 0.04 µM; EC50 (DOP-R1 [9]; read-out: Mean (± SEM) EC50 for Midbrain Opioid Stimulation, midbrain membranes, SoRI-9409-vehicle/Yohimbine-vehicle): > 100 µM; EC50 (DOP-R1 [9]; read-out: Mean (± SEM) EC50 for TAN67 Stimulation, Striatum, striatal membranes, SoRI-9409 (5 mg/kg I.P.)/Yohimbine (2 mg/kg I.P.)): > 100 µM; EC50 (DOP-R1 [9]; read-out: Mean (± SEM) EC50 for TAN67 Stimulation, Striatum, striatal membranes, SoRI-9409 (5 mg/kg I.P.)/Yohimbine-vehicle): > 100 µM; EC50 (DOP-R1 [9]; read-out: Mean (± SEM) EC50 for TAN67 Stimulation, Striatum, striatal membranes, SoRI-9409-vehicle/Yohimbine (2 mg/kg I.P.)): > 100 µM; EC50 (DOP-R1 [9]; read-out: Mean (± SEM) EC50 for TAN67 Stimulation, Striatum, striatal membranes, SoRI-9409-vehicle/Yohimbine-vehicle): > 100 µM

Which results are given for COC(=O)[C@@H]1[C@H]2C[C@H]3c4[nH]c5ccccc5c4CCN3C[C@@H]2CC[C@@H]1O [Yohimbine, reference compound]?
active lever presses (30 min) (Long-Evans rats; SoRI-9409-vehicle prior to yohimbine 2 mg/kg I.P., ethanol-extinguished rats, vehicle/vehicle 10.9 ± 1.8): 48.0 ± 7.0 presses; Inactive lever presses (Long-Evans rats; SoRI-9409-vehicle, Yohimbine group (2 mg/kg I.P.)): 2.1 ± 0.7

For Oc1ccc2c3c1O[C@H]1c4[nH]c5ccccc5c4C[C@@]4(O)[C@@H](C2)N(CC2CC2)CC[C@]314 [naltrindole, naltrindole hydrochloride], which IC50 (DOP-R1 [1]) is on record?
The IC50 was 0.046 ± 0.0038 µM.
